Measurements published in patent publication US20220280472A1, “TREATMENT OF PULMONARY FIBROSIS USING INHIBITORS OF NEU1 SIALIDASE” (University of Maryland, Baltimore, priority 2019, published 2022).
Entries after “also recorded” stand apart in the source; their conditions may differ.

Tests used:
[1] = system: total lung sialidase (NEU) activity; experiment: Total sialidase (NEU) activity for 4-MU-NANA in mouse lung after in vivo dosing; set-up: lung sialidase activity: dose or concentration left out as unconfirmed; conditions: for total lung sialidase activity: 15 mg/kg ip, harvested 18 h later
Description: Wild-type female C57BL/6 mice aged 10-12 weeks and weighing 18-20 g (The Jackson Laboratory, Bar Harbor, Me.) were treated in accordance with a research protocol approved by the University of Maryland Institutional Animal Care and Use Committee. Animals were maintained in sterile microisolator cages with sterile rodent feed and water in the Baltimore VA Medical Center Research Animal Facility approved by the Association for Assessment and Accreditation of Laboratory Animal Care. To model pulmonary inflammation and fibrosis, a single dose of 0.075 U of bleomycin (BLM)(Sigma-Aldrich, St. Louis, Mo.) diluted in 50 μl of sterile phosphate-buffered saline (PBS) was intratracheally (i.t.) delivered to mouse lungs on day 0. Briefly, a minor anterior midline neck incision was made to reveal the trachea, and a MicroSprayer® (Penn-Century, Wyndmoor, Philadelphia, Pa.) was inserted i.t., and the bleomycin or sterile PBS alone instilled. […] On day 14, mice were euthanized by CO2 asphyxiation followed by cervical dislocation. Immediately postmortem, bronchoalveolar lavage fluid (BALF)s and lungs were harvested. BALF samples were collected and analyzed. Installation and withdrawal of 1 ml of PBS twice via an 18-gauge blunt-end needle secured in the trachea were performed in each animal The 2 aliquots of BALF were pooled, centrifuged, and total and differential cell counts performed. The lungs were processed for qRT-PCR, to measure levels for NEU 1-4, PPCA, collagen 1α2, and collagen 3α1transcripts, quantitative immunoblotting for NEU1-4 and PPCA proteins, and determination of hydroxyproline as a measure of total collagen. In selected experiments, lung tissue was processed for assays of total sialidase activity for fluorogenic substrate, 2′-(4-methylumbelliferyl)-α-D-N-acetylneuraminic acid (4-MU-NANA) and peanut agglutinin (PNA) lectin blotting as an indicator of desialylation.
Fluorometric Assay for Sialidase Activity: Lungs harvested from mice pretreated with one of three sialidase inhibitors or saline alone were weighed, homogenized, centrifuged, and the supernatants collected. These samples and SAECs, HPMECs, and NHLFs preincubated with increasing concentrations of the NEU1-selective NEU inhibitor, III-32B5 were suspended in 200μλ of 500 mM sodium acetate, pH 4.4 containing 0.1% Triton X-100, and a protease inhibitor mixture (Roche Applied Science), and then incubated for 1 h at 37° C. with 25 μl of 2.0 mM 2′-(4-methylumbelliferyl)-α-D-N-acetylneuraminic acid (4-MU-NANA), mixing the tubes every 15 min. The NEU reaction was terminated by addition of 133 mM glycine, pH 10.3, 60 mM NaCl, and 0,083 M […] after which the fluorescence intensity was measured with a Bio-Rad fluorometer (excitation at 355 nm; emission at 460 nm). […]

[2] = system: BALF cell sialidase activity; experiment: Total BALF cell sialidase activity after in vivo dosing; set-up: species or system mouse; conditions: 15 mg/kg ip, re-injected after 24 h, harvested 18 h later; vs saline
Description: Fluorometric Assay for Sialidase Activity: Lungs harvested from mice pretreated with one of three sialidase inhibitors or saline alone were weighed, homogenized, centrifuged, and the supernatants collected. These samples and SAECs, HPMECs, and NHLFs preincubated with increasing concentrations of the NEU1-selective NEU inhibitor, III-32B5 were suspended in 200μλ of 500 mM sodium acetate, pH 4.4 containing 0.1% Triton X-100, and a protease inhibitor mixture (Roche Applied Science), and then incubated for 1 h at 37° C. with 25 μl of 2.0 mM 2′-(4-methylumbelliferyl)-α-D-N-acetylneuraminic acid (4-MU-NANA), mixing the tubes every 15 min. The NEU reaction was terminated by addition of 133 mM glycine, pH 10.3, 60 mM NaCl, and 0,083 M […] after which the fluorescence intensity was measured with a Bio-Rad fluorometer (excitation at 355 nm; emission at 460 nm).
After 24 h, the mice were administered these same injections, and 18 h later, were euthanized and their BALFs and lungs harvested. The lungs were processed for total protein levels and total sialidase activity. […] The BALFs from these same mice were processed for cell counts and sialidase activity. […] These findings establish the ability of each of 2 NEU1-selective pharmacologic inhibitors to profoundly reduce total lung and BALF cell sialidase activity in vivo. The NEU1 inhibitor can comprise C1-methyl esters of the compounds.

[3] = system: bleomycin-challenged C57BL/6 mice; experiment: Bleomycin-induced pulmonary fibrosis model; format: in vivo, mouse; conditions: for BALF total cell counts, lymphocytes, and neutrophils / lung collagen mRNA (collagen 1A2, collagen 3A1; qRT-PCR) / lung collagen protein (hydroxyproline-based QuickZyme assay): 15 mg/kg i.p. daily days 8-14, day 14, vs bleomycin alone; for total body weight: 15 mg/kg i.p. daily on days 8-14 after bleomycin, by day 14
Description: Wild-type female C57BL/6 mice aged 10-12 weeks and weighing 18-20 g (The Jackson Laboratory, Bar Harbor, Me.) were treated in accordance with a research protocol approved by the University of Maryland Institutional Animal Care and Use Committee. Animals were maintained in sterile microisolator cages with sterile rodent feed and water in the Baltimore VA Medical Center Research Animal Facility approved by the Association for Assessment and Accreditation of Laboratory Animal Care. To model pulmonary inflammation and fibrosis, a single dose of 0.075 U of bleomycin (BLM)(Sigma-Aldrich, St. Louis, Mo.) diluted in 50 μl of sterile phosphate-buffered saline (PBS) was intratracheally (i.t.) delivered to mouse lungs on day 0. Briefly, a minor anterior midline neck incision was made to reveal the trachea, and a MicroSprayer® (Penn-Century, Wyndmoor, Philadelphia, Pa.) was inserted i.t., and the bleomycin or sterile PBS alone instilled. Mice were serially weighed, and on days 8-14, daily administered intraperitoneally (i. p.) with 15 mg/kg of 2DN, or […], or III-32B5, or vehicle alone. On day 14, mice were euthanized by CO2 asphyxiation followed by cervical dislocation. Immediately postmortem, bronchoalveolar lavage fluid (BALF)s and lungs were harvested. BALF samples were collected and analyzed. Installation and withdrawal of 1 ml of PBS twice via an 18-gauge blunt-end needle secured in the trachea were performed in each animal The 2 aliquots of BALF were pooled, centrifuged, and total and differential cell counts performed. […] Total cellular RNA was extracted from murine lung tissue. RNA purity was established with the A260/A280 absorption ratio (>1.90). Total RNA (1.0 μg) was treated with DNase I (Invitrogen) for 15 min and reverse transcribed using avian myeloblastosis virus reverse transcriptase and poly(T) primer (Promega). The resulting cDNA was quantified by real time quantitative reverse transcription-polymerase chain reaction (qRT-PCR) using SYBR Green PCR Master Mix and ABI Prism 7900HT cycler. […] Measurement of Total Lung Collagen: Collagen content was measured in lung tissue based on detection of hydroxyproline, using the Total Collagen Assay kit from QuickZyme (Leiden, The Netherlands). Briefly, following hydrolysis of 50 mg lung tissue in […] of 6M HCl for 20 h at 95° C., the hydrolysate was diluted 10-fold with 4M HCl and measured against serial dilutions of collagen standard; the results were expressed as μg collagen per mg wet lung tissue. Mice challenged I.T. with bleomycin were serially weighed, and on days 8-14, daily administered i.p. 2DN or vehicle alone. On day 14, mice were sacrificed, and BALF and lungs harvested. The BALF was processed for total and differential cell counts, and lung tissues were collagenase-digested for lymphocyte counts and flow cytometry, processed for qRT-PCR for collagen mRNA expression, or homogenized for hydroxyproline-based assays to quantify collagen protein (FIG. 1C, 1D, 1E). In all bleomycin-challenged mice, total body weight decreased through days 1-7 (FIG. 1B). While the saline-injected, bleomycin-challenged mice continued to lose body weight through the 14-day study period, on days ≥9, the 2DN-treated, bleomycin-administered mice maintained and even increased body weight. […] On day 14, total and differential BALF cell counts were performed (FIG. 1C). In the PBS-injected, bleomycin-challenged mice, total cell counts, macrophages, lymphocytes, and neutrophils each were increased compared to BALF cell counts for the simultaneous saline controls. The addition of broad-spectrum NEU inhibition with 2DN reversed the increased in total cell counts, lymphocytes, and neutrophils, each compared to counts in the PBS-injected, bleomycin-challenged mice. In these same mice, lung homogenates were processed for qRT-PCR using primers for collagen 1A2 and collagen 3A1 to quantify their mRNA expression (FIG. 1D). […]

[4] = system: bleomycin-challenged C57BL/6 mice; experiment: Bleomycin-induced pulmonary fibrosis model; format: in vivo, mouse; conditions: 15 mg/kg; FIG. 6A
[5] = system: SAECs (human primary small airway epithelial cells); conditions: cited from earlier work
[6] = system: HPMECs (human primary pulmonary microvascular endothelial cells); conditions: cited from earlier work
[7] = system: HLFs (human lung fibroblasts); conditions: cited from earlier work
NEUs 2-4 = conditions: cited from earlier work
[8] = system: SAECs (human primary small airway epithelial cells); experiment: Fluorometric sialidase activity assay (4-MU-NANA) in SAECs; format: cell-based; conditions: increasing concentrations; 1.0×10^6 cells/reaction
Description: (§1) Human Lung Cell Cultures: Human primary small airway epithelial cell (SAEC)s isolated from the distal portion of the bronchioles and human primary pulmonary microvascular endothelial cell (HPMEC)s were purchased from Promocell (Heidelberg, Germany) SAECs were cultured in predefined small airway growth medium containing hydrocortisone, human epidermal growth factor, epinephrine, transferrin, insulin, retinoic acid, triiodothyronine, and fatty acid-free bovine serum albumin. Only SAEC passaged 2-4 were studied. HPMECs were cultured in endothelial cell growth medium (MV-2, PromoCell) containing growth medium supplement mix (PromoCell). Only HPMEC passages 4-7 were studied. Primary normal human lung fibroblast (NHLF)s were either isolated from normal lungs initially harvested from lung […] but ultimately not used in a study approved by the Institutional Review Board at the University of Maryland, or purchased from Lonza (Walkersville, Md.). […]
(§2) Fluorometric Assay for Sialidase Activity: Lungs harvested from mice pretreated with one of three sialidase inhibitors or saline alone were weighed, homogenized, centrifuged, and the supernatants collected. […] The NEU reaction was terminated by addition of 133 mM glycine, pH 10.3, 60 mM NaCl, and 0,083 M […] after which the fluorescence intensity was measured with a Bio-Rad fluorometer (excitation at 355 nm; emission at 460 nm). […]

[9] = system: HPMECs (human primary pulmonary microvascular endothelial cells); experiment: Fluorometric sialidase activity assay (4-MU-NANA) in HPMECs; format: cell-based; conditions: increasing concentrations; 1.0×10^6 cells/reaction
Description: as §1, §2

[10] = system: HLFs (human lung fibroblasts); experiment: Fluorometric sialidase activity assay (4-MU-NANA) in HLFs; format: cell-based; conditions: increasing concentrations; 1.0×10^6 cells/reaction
Description: as §1, §2

[11] = re-injected after 24 h, vs saline

sialidase activity in HLFs [10] | SMILES | lung sialidase activity [1] | total lung sialidase activity [1, 11] | total BALF cell sialidase activity [2] | BALF total cell counts, lymphocytes, and neutrophils [3] | lung collagen mRNA (collagen 1A2, collagen 3A1; qRT-PCR) [3] | lung collagen protein (hydroxyproline-based QuickZyme assay) [3] | total body weight [3] | 14-day collagen deposition, mean value ([3]; mice receiving both BLM and C9-BADANA, BLM alone 13.4±2.1 μg/mg) | lung collagen deposition [4] | sialidase activity in human airway epithelia, previously reported [5] | sialidase activity in human lung microvascular endothelia, previously reported [6] | sialidase activity in human lung fibroblasts, previously reported [7] | IC50 (NEUs 2-4) | sialidase activity in SAECs [8] | sialidase activity in HPMECs [9] | reduction of total NEU activity in lung ([1]; 15 mg/kg i.p., re-injected after 24 h, lungs harvested 18 h later, vs saline)
– | CCCCC(=O)NC[C@H](O)[C@H](O)[C@@H]1OC(C(=O)O)=C[C@H](O)[C@H]1NC(C)=O [C9-BADANA] | dramatically reduces | reduced | reduced | reversed | protected against | protected against; also recorded: significantly decreased | returning to their pretreatment baselines; also recorded: counteracted | 8.6 ± 1.7 µg/mg | dramatically reduces | inhibition | inhibition | inhibition | > 1000 µM | – | – | –
dose-dependently inhibited | CCCCCC(=O)N[C@H]1[C@H]([C@@H](O)[C@@H](O)CNC(C)=O)OC(C(=O)O)=C[C@@H]1O [III-32B5, C5-hexanamido-C9-acetamido-DANA] | – | reduced | reduced | reversed | protected against | protected against; also recorded: significantly decreased | returning to their pretreatment baselines; also recorded: counteracted | – | – | – | – | – | – | dose-dependently inhibited | dose-dependently inhibited | –
– | CC(=O)N[C@H]1[C@H]([C@H](O)[C@H](O)CO)OC(C(=O)O)C[C@@H]1O (stereo partly drawn) [2DN, 2-deoxy-N-acetyneuraminic acid, reference compound] | – | – | – | reversed | reduced | reversed | returned to their pretreatment baseline | – | – | inhibition | inhibition | inhibition | – | – | – | at least 8 fold
